According to patent US9708325B2, “Sulfonimidoylpurinone compounds and derivatives for the treatment and prophylaxis of virus infection” (Hoffmann-La Roche Inc., priority 2015, dated 2017):
Converted amounts (≈) assume the structure as drawn. Read-outs that look alike come from different tables or passages of the source.

What was measured:
[1] = tested on: Salmonella typhimurium tester strains (TA1535, TA97, TA98, TA100, and TA102); test: Ames microsuspension assay; format: cell-based; settings: five strains, absence and presence of S9
Procedure: The Ames microsuspension assay examines if a compound causes DNA mutations. The method was based on a modified pre-incubation version described by Kado et al (see references: B. N. Ames, J. McCann, E. Yamasaki, Mutation Res. 1975, 31, 347-364 N.Y. Kado, D. Langley, and E. Eisenstadt, Mutation Res. 1983, 121, 25-32). Five Salmonella typhimurium tester strains (TA1535, TA97, TA98, TA100, and TA102) were treated with the test compound in absence and in presence of an exogenous metabolic activation system (S9). The bacteria were pre-incubated for 1 h, the pre-incubation volume is 210 μL (100 μL of overnight culture, 100 μL of S9 mix (10% S9) or 100 μL phosphate buffer, and 10 μL test compound solution). The overnight cultures were resuspended for the test in cold phosphate buffer. The S9 mix contains potassium chloride, magnesium chloride, sodium phosphate buffered saline, NADP^+ and glucose-6-phosphate. The test tubes are incubated and shaken for 60 minutes at 37° C. 2.2 mL soft agar supplemented with L-histidine and biotin was added afterwards and the content of the tubes were mixed and poured on Vogel-Bonner minimal agar plates.
Three replicate plates for the test compound and negative control or two replicate plates for the positive controls were incubated at 37° C., upside down, for 2 days. Colonies were counted electronically using an automatic image analysis system after having inspected the background lawn for signs of toxicity.
S9 is an in vitro metabolic system which is obtained from liver homogenates by centrifuging them at 9000 g for 20 minutes. It contains CYP450 isoforms, phase-II metabolic enzymes, etc. In the Ames microsuspension assay test, S9 is used to assess mutagenicity of compounds, some of which require metabolic activation to become mutagenic.
Criteria of the Ames microsuspension assay: a positive result is defined as a reproducible, dose-related increase in the number of revertant colonies in at least one of the strains. For TA1535 and TA98, the positive threshold is a 2-fold increase over control. For TA97, TA100 and TA102, the threshold is a 1.5-fold increase.

[2] = Metabolic stability in human liver microsomes; settings: 1 μM test compound, 0.5 mg/mL microsomal protein; 6.15 mL/min/kg is the limitation of assay sensitivity
Procedure: The human microsomal stability assay is used for early assessment of metabolic stability of a test compound in human liver microsomes.
Human liver microsomes (Cat. NO.: 452117, Corning, USA; Cat. NO.: H2610, Xenotech, USA) were preincubated with test compound for 10 minutes at 37° C. in 100 mM potassium phosphate buffer, pH 7.4. The reactions were initiated by adding NADPH regenerating system. The final incubation mixtures contained 1 μM test compound, 0.5 mg/mL liver microsomal protein, 1 mM MgCL2, 1 mM NADP, 1 unit/mL isocitric dehydrogenase and 6 mM isocitric acid in 100 mM potassium phosphate buffer, pH 7.4. After incubation times of 0, 3, 6, 9, 15 and 30 minutes at 37° C., 300 μL of cold ACN (including internal standard) was added to 100 μL incubation mixture to terminate the reaction. Following precipitation and centrifugation, the amount of compound remaining in the samples were determined by LC-MS/MS. Controls of no NADPH regenerating system at zero and 30 minutes were also prepared and analyzed.

[3] = LYSA solubility; format: physicochemical; settings: for solubility thermodynamic: 0.05 M phosphate buffer, pH 6.5, aqueous buffer, thermodynamic from solid; for LYSA: 0.05 M phosphate buffer (pH 6.5)
Procedure: LYSA solubility assay is used to determine the aqueous solubility of a compound. Samples were prepared in duplicate from 10 mM DMSO stock solution. […] After one night, the solutions were filtered using a microtiter filter plate. Then the filtrate and its 1/10 dilution were analyzed by HPLC-UV.

[4] = molecular target: hERG channel (Homo sapiens (Human), UniProt Q12809); test: hERG channel inhibition assay (patch-clamp, CHOhERG cells); format: cell-based
Procedure: The hERG K^+ channels were cloned in humans and stably expressed in a CHO (Chinese hamster ovary) cell line. CHOhERG cells were used for patch-clamp (voltage-clamp, whole-cell) experiments. Cells were stimulated by a voltage pattern to activate hERG channels and conduct IKhERG currents (rapid delayed outward rectifier potassium current of the hERG channel). […] Thereafter, the test compound was added to the preparation at increasing concentrations. For each concentration, an attempt was made to reach a steady-state effect, usually, this was achieved within 3-10 min at which time the next highest concentration was applied. The amplitude and kinetics of IKhERG are recorded in each concentration of the drug which were compared to the control values (taken as 100%). (references: Redfern W S, Carlsson L, Davis A S, Lynch W G, MacKenzie I, Palethorpe S, Siegl P K, Strang I, Sullivan A T, Wallis R, Camm A J, Hammond T G. 2003; Relationships between preclinical cardiac electrophysiology, clinical QT interval prolongation and torsade de pointes for a broad range of drugs: evidence for a provisional safety margin in drug development. Cardiovasc. Res. 58:32-45, Sanguinetti M C, Tristani-Firouzi M. 2006; hERG potassium channels and cardiac arrhythmia. Nature 440:463-469, Webster R, Leishman D, Walker D. 2002; Towards a drug concentration effect relationship for QT prolongation and torsades de pointes. Curr. Opin. Drug Discov. Devel. 5:116-26).

[5] = molecular target: human TLR7 (Homo sapiens (Human), UniProt Q9NYK1); test: HEK-Blue-hTLR7 cells assay (SEAP reporter); format: cell-based; settings: 20 hrs, read-out: HEK-Blue-hTLR7 (EC50 (μM))
Procedure: (§1) A stable HEK-Blue-hTLR7 cell line was purchased from InvivoGen (Cat.#: hkb-htlr7, San Diego, Calif., USA). These cells were designed for studying the stimulation of human TLR7 by monitoring the activation of NF-κB. […] Therefore the reporter expression was regulated by the NF-κB promoter upon stimulation of human TLR7 for 20 hrs. The cell culture supernatant SEAP reporter activity was determined using QUANTI-Blue™ kit (Cat.#: rep-qb1, Invivogen, San Diego, Ca, USA) at a wavelength of 640 nm, a detection medium that turns purple or blue in the presence of alkaline phosphatase.
(§2) HEK-Blue-hTLR7 cells were incubated at a density of 250,000˜450,000 cells/mL in a volume of 180 μL in a 96-well plate in Dulbecco's Modified Eagle's medium (DMEM) containing 4.5 g/L glucose, 50 U/mL penicillin, […], […], 2 mM L-glutamine, 10% (V/V) heat-inactivated fetal bovine serum for 24 hrs. Then the HEK-Blue-hTLR-7 cells were incubated with addition of 20 μL test compound in a serial dilution in the presence of final DMSO at 1% and perform incubation under 37° C. in a CO2 incubator for 20 hrs. Then 20 μL of the supernatant from each well was incubated with 180 μL Quanti-blue substrate solution at 37° C. for 2 hrs and the absorbance was read at 620˜655 nm using a spectrophotometer. The signalling pathway that TLR7 activation leads to downstream NF-κB activation has been widely accepted, and therefore similar reporter assay was also widely used for evaluating TLR7 agonist (Tsuneyasu Kaisho and Takashi Tanaka, Trends in Immunology, Volume 29, Issue 7, July 2008, […]; Hiroaki Hemmi et al, Nature Immunology 3, 196-200 (2002)).

[6] = molecular target: human TLR8 (Homo sapiens (Human), UniProt Q9NR97); test: HEK-Blue-hTLR8 cells assay and selectivity index; format: cell-based; settings: for Selective index: EC50(TLR8) value/EC50(TLR7) value
Procedure: as §1, with “HEK-Blue-hTLR8” for “HEK-Blue-hTLR7”, “HEK-Blue-htlr8,” for “hkb-htlr7,”, “TLR8” for “TLR7”
as §2, with “HEK-Blue-hTLR8 cells” for “HEK-Blue-hTLR7 cells”, “the HEK-Blue-hTLR8” for “the HEK-Blue-hTLR-7”, “2 hours” for “2 hrs”, “that TLR8” for “that TLR7”, “evaluating TLR8” for “evaluating TLR7”
The ratio of TLR8 agonism activity compared to TLR7 agonism activity was defined as the selectivity index (EC50 (TLR8) value/EC50(TLR7) value) and calculated accordingly.

[7] = Single dose PK after 1 mg/kg intravenous dosing to rat; format: in vivo, Male Wister-Han Rats; settings: IV 1 mpk; for concentration at 4 h: read-out: Mean plasma concentration
Procedure: The single dose PK in Male Wister-Han Rats was performed to assess pharmacokinetic properties of tested compounds. Two groups of animals were dosed via bolus intravenous (IV) of the respective compound. Blood samples (approximately 20 μL) were collected via Jugular vein or an alternate site at 5 min, 15 min, 30 min, 1 hr, 2 hr, 4 hr, 7 hr and 24 hr post-dose for IV group. Blood samples were placed into tubes containing EDTA-K2 anticoagulant and centrifuged at 5000 rpm for 6 min at 4° C. to separate plasma from the samples. Following centrifugation, the resulting plasma was transferred to clean tubes for bioanalysis on LC/MS/MS. The pharmacokinetic parameters were calculated using non-compartmental module of WinNonlin® Professional 6.2. […] Therefore, compounds of present invention potentially could lead to less dose frequency and lower dose in clinical application.

[8] = HEK-Blue-hTLR8 cells, SEAP reporter, 20 hrs, read-out: HEK Blue hTLR-8 EC50

Sequence of human TLR8 (Q9NR97 27-1041): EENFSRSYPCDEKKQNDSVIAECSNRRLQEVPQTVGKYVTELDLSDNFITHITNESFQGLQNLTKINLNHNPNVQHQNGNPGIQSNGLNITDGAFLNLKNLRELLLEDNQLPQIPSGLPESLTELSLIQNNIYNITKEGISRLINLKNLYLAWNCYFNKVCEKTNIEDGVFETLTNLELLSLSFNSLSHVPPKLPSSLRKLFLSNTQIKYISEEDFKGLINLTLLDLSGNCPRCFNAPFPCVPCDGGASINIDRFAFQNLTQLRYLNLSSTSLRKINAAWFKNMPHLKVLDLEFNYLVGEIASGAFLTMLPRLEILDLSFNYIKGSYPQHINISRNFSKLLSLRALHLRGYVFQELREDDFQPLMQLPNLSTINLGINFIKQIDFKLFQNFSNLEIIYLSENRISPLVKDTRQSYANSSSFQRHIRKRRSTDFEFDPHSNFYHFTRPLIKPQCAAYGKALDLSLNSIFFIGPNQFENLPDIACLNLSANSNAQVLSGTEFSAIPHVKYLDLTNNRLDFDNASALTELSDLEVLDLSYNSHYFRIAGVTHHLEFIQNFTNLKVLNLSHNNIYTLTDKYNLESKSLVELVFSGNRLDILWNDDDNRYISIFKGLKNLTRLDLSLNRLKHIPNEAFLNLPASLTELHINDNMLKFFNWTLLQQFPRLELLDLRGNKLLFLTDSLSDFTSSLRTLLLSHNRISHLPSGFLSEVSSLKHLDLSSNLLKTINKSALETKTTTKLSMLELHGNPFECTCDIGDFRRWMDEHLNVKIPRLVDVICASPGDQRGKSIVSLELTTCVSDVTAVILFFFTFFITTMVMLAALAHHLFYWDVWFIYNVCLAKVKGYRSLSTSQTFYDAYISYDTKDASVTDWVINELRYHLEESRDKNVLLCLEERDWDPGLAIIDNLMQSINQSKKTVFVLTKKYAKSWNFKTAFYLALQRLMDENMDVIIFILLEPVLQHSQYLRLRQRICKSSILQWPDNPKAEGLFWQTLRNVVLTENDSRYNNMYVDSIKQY
Sequence of human TLR7 (Q9NYK1 27-1049): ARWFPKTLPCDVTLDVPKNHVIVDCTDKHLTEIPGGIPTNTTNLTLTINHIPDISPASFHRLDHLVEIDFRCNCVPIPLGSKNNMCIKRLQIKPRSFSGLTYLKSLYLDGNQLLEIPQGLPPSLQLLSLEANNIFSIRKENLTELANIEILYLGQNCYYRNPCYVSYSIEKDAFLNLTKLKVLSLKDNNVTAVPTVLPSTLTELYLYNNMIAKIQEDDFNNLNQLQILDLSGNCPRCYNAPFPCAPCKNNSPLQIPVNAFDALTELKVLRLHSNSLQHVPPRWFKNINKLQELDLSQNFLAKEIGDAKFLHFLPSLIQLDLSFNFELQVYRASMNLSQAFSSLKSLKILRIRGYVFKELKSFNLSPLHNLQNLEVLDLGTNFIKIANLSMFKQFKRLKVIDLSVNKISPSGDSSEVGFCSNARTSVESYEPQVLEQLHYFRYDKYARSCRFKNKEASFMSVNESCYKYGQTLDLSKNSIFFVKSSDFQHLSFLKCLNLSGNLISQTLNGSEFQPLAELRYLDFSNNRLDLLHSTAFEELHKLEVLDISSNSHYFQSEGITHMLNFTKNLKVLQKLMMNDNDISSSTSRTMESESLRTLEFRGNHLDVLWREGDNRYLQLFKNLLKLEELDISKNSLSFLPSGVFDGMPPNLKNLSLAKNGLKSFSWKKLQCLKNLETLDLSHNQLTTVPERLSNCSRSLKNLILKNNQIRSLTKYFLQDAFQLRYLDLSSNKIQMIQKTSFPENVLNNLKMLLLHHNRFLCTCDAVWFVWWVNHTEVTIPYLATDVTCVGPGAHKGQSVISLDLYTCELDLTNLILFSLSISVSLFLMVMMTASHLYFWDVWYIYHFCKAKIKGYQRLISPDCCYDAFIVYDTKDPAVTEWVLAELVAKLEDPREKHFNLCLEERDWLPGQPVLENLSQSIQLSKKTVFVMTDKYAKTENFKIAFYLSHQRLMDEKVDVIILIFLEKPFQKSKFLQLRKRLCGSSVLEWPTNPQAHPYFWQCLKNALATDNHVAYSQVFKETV
Sequence of hERG channel (Q12809 whole entry): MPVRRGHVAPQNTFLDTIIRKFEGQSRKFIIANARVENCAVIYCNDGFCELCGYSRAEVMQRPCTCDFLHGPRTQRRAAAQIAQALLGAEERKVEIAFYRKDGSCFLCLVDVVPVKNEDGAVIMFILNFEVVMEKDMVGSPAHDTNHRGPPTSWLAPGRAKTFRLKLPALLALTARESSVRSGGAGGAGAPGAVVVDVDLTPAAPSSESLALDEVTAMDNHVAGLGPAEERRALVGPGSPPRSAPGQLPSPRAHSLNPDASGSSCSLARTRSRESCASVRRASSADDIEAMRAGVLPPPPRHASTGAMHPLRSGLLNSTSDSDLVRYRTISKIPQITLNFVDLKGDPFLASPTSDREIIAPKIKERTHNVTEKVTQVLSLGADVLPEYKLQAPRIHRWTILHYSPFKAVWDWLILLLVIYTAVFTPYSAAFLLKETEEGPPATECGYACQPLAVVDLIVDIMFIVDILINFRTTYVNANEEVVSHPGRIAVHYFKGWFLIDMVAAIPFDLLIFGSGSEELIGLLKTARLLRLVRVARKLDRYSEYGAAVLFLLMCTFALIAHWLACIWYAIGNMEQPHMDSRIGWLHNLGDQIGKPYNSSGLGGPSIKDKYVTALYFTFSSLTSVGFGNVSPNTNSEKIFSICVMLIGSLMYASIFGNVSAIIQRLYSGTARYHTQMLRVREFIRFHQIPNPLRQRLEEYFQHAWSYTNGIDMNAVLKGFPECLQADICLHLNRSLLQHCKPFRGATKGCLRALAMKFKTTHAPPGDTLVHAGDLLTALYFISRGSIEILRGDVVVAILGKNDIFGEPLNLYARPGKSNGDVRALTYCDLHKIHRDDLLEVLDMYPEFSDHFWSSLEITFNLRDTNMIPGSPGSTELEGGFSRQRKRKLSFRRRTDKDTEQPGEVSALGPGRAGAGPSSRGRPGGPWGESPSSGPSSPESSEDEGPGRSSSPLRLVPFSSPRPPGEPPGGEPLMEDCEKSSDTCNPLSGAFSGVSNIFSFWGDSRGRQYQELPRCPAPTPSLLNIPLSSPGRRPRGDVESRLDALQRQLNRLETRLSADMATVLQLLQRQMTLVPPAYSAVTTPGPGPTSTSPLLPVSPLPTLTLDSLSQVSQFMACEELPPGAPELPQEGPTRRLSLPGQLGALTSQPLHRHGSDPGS

Row | Structure (SMILES) | solubility thermodynamic [3] [µg/mL] | EC50 [5] [µM] | EC50 [6] [µM] | Selective index [6] | further results
1 | CS(=N)(=O)c1nc(N)c2[nH]c(=O)n(Cc3ccccc3)c2n1 (single isomer, unassigned) [Example 1-B, 6-Amino-9-benzyl-2-(methylsulfonimidoyl)-7H-purin-8-one] | 98 (≈ 308 µM) | – | – | – | Ames result [1]: negative; Human Liver Microsome Clearance [2]: <6.15 mL/min/kg
2 | CCCS(=N)(=O)c1nc(N)c2[nH]c(=O)n(Cc3ccc(C)cc3)c2n1 (single isomer, unassigned) [Example 29-B, 6-Amino-2-(propylsulfonimidoyl)-9-(p-tolylmethyl)-7H-purin-8-one] | – | – | – | – | Safety ratio (hERG IC20/EC50) ([4]; hERG IC20/EC50): >546; IC20 ([4]; read-out: hERG IC20): > 10 µM; Ames result [1]: negative; LYSA [3]: 11 µg/mL
3 | CS(=N)(=O)c1nc(N)c2[nH]c(=O)n(Cc3ccc(Cl)cc3)c2n1 (centres unmarked) [Example 13, 6-Amino-9-[(4-chlorophenyl)methyl]-2-(methylsulfonimidoyl)-7H-purin-8-one] | 10 (≈ 28.3 µM) | 0.043 | 300 | 6977 | –
4 | CS(=N)(=O)c1nc(N)c2[nH]c(=O)n(Cc3cccnc3)c2n1 (centres unmarked) [Example 16, 6-Amino-2-(methylsulfonimidoyl)-9-(3-pyridylmethyl)-7H-purin-8-one] | – | 0.22 | > 1000 | >4546 | –
5 | CS(=N)(=O)c1nc(N)c2[nH]c(=O)n(Cc3ccncc3)c2n1 (centres unmarked) [Example 20, 6-Amino-2-(methylsulfonimidoyl)-9-(4-pyridylmethyl)-7H-purin-8-one] | – | 0.26 | > 1000 | >3846 | –
6 | CCCS(=N)(=O)c1nc(N)c2[nH]c(=O)n(Cc3cnc(C)nc3)c2n1 (centres unmarked) [Example 44, 6-Amino-9-[(2-methylpyrimidin-5-yl)methyl]-2-(propylsulfonimidoyl)-7H-purin-8-one] | 357 (≈ 985 µM) | 0.136 | – | – | Human Liver Microsome Clearance [2]: <6.15 mL/min/kg
7 | CCS(=N)(=O)c1nc(N)c2[nH]c(=O)n(Cc3ccc(Cl)cc3)c2n1 (centres unmarked) [Example 70, 6-Amino-9-[(4-chlorophenyl)methyl]-2-(ethylsulfonimidoyl)-7H-purin-8-one] | 7 (≈ 19.1 µM) | 0.057 | 90 | 1579 | –
8 | CNC(=O)c1nc(N)c2[nH]c(=O)n(Cc3ccccc3)c2n1 [Example P-5, reference compound] | – | 3.14 | – | – | EC50 [6, 8]: > 1000 µM
9 | CS(=O)(=O)c1nc(N)c2[nH]c(=O)n(Cc3ccccc3)c2n1 [Example S-1, reference compound] | – | 0.37 | – | >2703 | AUC0-inf [7]: 0.201 µM·h; CL [7]: 261 mL/min/kg; CO [7]: 534 nM; concentration at 4 h ([7]; 0.083 h): 534 nM; concentration at 4 h ([7]; 0.25 h): 236 nM; concentration at 4 h ([7]; 0.5 h): 125 nM; concentration at 4 h ([7]; 1 h): 38 nM; concentration at 4 h ([7]; 2 h): 9 nM; EC50 [6, 8]: > 1000 µM; LYSA [3]: 0.5 µg/mL
